“Also recorded” adds a separate entry of the source. Counter-ions that a name gives are not always drawn.
Tests used:
[1] = system: K562; experiment: 3 day MTS cytotoxicity assay, K562; format: cell-based; conditions: Homo sapiens; K562, BTK-positive; mean ± SD, n ≥ 6
Experimental: (§1) The cytotoxic activity of all the 10 compounds was tested under in vitro conditions using a 3 day standard 3-(4,5-dimethylthiazol-2yl)-5-(3-carboxymethoxyphenyl)-2-(4-sulfophenyl)-2H-tetrazolium reduction assay in 384-well plates on a robotic high-throughput screening platform (HighResBio, Boston, MA) as described elsewhere.[38] The IC50 values were calculated from the respective dose–response curves of compounds with Dotmatics (San Diego, CA, USA).

[2] = system: U2OS; experiment: 3 day MTS cytotoxicity assay, U2OS; format: cell-based; conditions: Homo sapiens, ITK/BTK-negative, mean ± SD, n ≥ 6
Experimental: as §1

[3] = system: CCRF-CEM; experiment: 3 day MTS cytotoxicity assay, CCRF-CEM; format: cell-based; conditions: Homo sapiens, ITK-positive, mean ± SD, n ≥ 6
Experimental: as §1

[4] = system: MRC-5; experiment: 3 day MTS cytotoxicity assay, MRC-5; format: cell-based; conditions: Homo sapiens, MRC5; MRC-5, non-cancer fibroblasts; mean ± SD, n ≥ 6
Experimental: as §1

[5] = system: JURKAT; experiment: 3 day MTS cytotoxicity assay, JURKAT; format: cell-based; conditions: Homo sapiens, ITK-positive, mean ± SD, n ≥ 6
Experimental: as §1

[6] = system: RAMOS; experiment: 3 day MTS cytotoxicity assay, RAMOS; format: cell-based, human; conditions: for IC50: Homo sapiens, Ramos, BTK-positive, mean ± SD, n ≥ 6; for activity in RAMOS cells: BTK-high
Experimental: as §1

[7] = system: BJ; experiment: 3 day MTS cytotoxicity assay, BJ; format: cell-based; conditions: Homo sapiens, non-cancer fibroblasts, mean ± SD, n ≥ 6
Experimental: as §1

[8] = system: HCT116p53^–/–; experiment: 3 day MTS cytotoxicity assay, HCT116p53-/-; format: cell-based; conditions: ITK/BTK-negative, mean ± SD, n ≥ 6
Experimental: as §1

[9] = system: HCT116; experiment: 3 day MTS cytotoxicity assay, HCT116; format: cell-based; conditions: Homo sapiens, HCT-116; HCT116, ITK/BTK-negative; mean ± SD, n ≥ 6
Experimental: as §1

[10] = Parallel artificial membrane permeability assay (PAMPA); format: in vitro ADME; conditions: passive diffusion
Experimental: (§2) Selected compounds were assayed for human plasma and liver microsomal stability in vitro, PAMPA and cellular permeability models of gastrointestinal resorption, and the blood–brain barrier using Caco-2 and MDR1-MCDK cells as previously described.[38] Samples were analyzed in an Agilent RapidFire 300 High-Throughput Mass Spectrometry System (RF-MS; Agilent, Wakefield, MA) with subsequent detection in a Qtrap 5500 mass spectrometer (AB Sciex, Concord, Canada).

[11] = system: MDR1; experiment: MDR1-MDCK permeability (blood–brain barrier model); format: in vitro ADME; conditions: dog
Experimental: as §2

[12] = MDR1-MDCK permeability (blood–brain barrier model); format: in vitro ADME; conditions: dog
Experimental: as §2

[13] = system: MDR1-MDCK cells; experiment: MDR1-MDCK permeability (blood–brain barrier model); format: in vitro ADME
Experimental: as §2

[14] = Plasma protein binding; format: in vitro ADME; conditions: in vitro, read-out: plasma protein binding (% bound) (converted)
[15] = Plasma stability; format: in vitro ADME; conditions: human plasma, in vitro
Experimental: as §2

[16] = Liver microsomal stability; format: in vitro ADME; conditions: human liver microsomes, intrinsic clearance category
Experimental: as §2

[17] = system: Caco-2 cells; experiment: Caco-2 permeability (gastrointestinal resorption model); format: in vitro ADME
Experimental: as §2

[18] = as above; format: in vitro ADME; conditions: human, Caco-2
Experimental: as §2

[19] = system: A549; experiment: 3 day MTS cytotoxicity assay, A549; format: cell-based; conditions: Homo sapiens; A549, ITK/BTK-negative; mean ± SD, n ≥ 6
Experimental: as §1

Structure (SMILES) | melting point | IC50 [1] | IC50 [2] | IC50 [3] | IC50 [4] | IC50 [5] | IC50 [6] | IC50 [7] | IC50 [8] | IC50 [9] | IC50 [19] | activity in RAMOS cells [6] | further results
C=CC(=O)N1CCC[C@@H](n2nc(-c3ccc(Oc4ccccc4)cc3)c3c(N)ncnc32)C1 [ibrutinib, Ibrutinib, reference compound] |  | 27 ± 3 µM | 23 ± 3 µM | 4 ± 1 µM | 28 µM | 5 ± 1 µM | 0.3 µM | 29 ± 1 µM | 30 ± 1 µM | 30 ± 1 µM |  |  | 
O=C1Nc2ccc(S(=O)(=O)N3CCN(C(=O)c4cccc(Br)c4)CC3)cc2C1=C1CCCC1 [9f, 5-((4-(3-Bromobenzoyl)piperazin-1-yl)sulfonyl)-3-cyclopentylideneindolin-2-one] |  | > 50 µM | > 50 µM | > 50 µM | > 50 µM | > 50 µM | 2.06 ± 0.43 µM | > 50 µM | > 50 µM | > 50 µM | > 50 µM | selective cytotoxicity; also recorded: showed activity; also recorded: good anticancer activity in the micromole range | PAMPA category [10]: low; Papp [11]: 3.2 ×10⁻⁶ cm/s; efflux ratio [11]: 6.93; recovery [12]: 79.2%; MDR1-MDCK CNS (−ive/+ive) [13]: CNS –ive; active efflux [13]: active efflux: yes; fraction unbound [14]: 0.043; plasma stability (category) [15]: stable; microsomal stability (clearance) [16]: medium; active efflux ([17]; Caco-2): active efflux: yes; Caco-2 category ([17]; Caco-2 permeability): medium permeability; also recorded: moderate; Papp [18]: 10.6 ×10⁻⁶ cm/s; efflux ratio [18]: 3.79; recovery [18]: 74.5%
O=C1Nc2ccc(S(=O)(=O)N3CCN(C(=O)C4CC4)CC3)cc2C1=C1CCCC1 (as salt: hydrochloride) [9c, 3-Cyclopentylidene-5-((4-(cyclopropanecarbonyl)piperazin-1-yl)sulfonyl)indolin-2-one] | 136 to 142 °C |  |  |  |  |  |  |  |  |  |  |  | 
O=C1Nc2ccc(S(=O)(=O)N3CCN(C(=O)C4CC4)CC3)cc2C1=C1CCCC1 [9c, 3-Cyclopentylidene-5-((4-(cyclopropanecarbonyl)piperazin-1-yl)sulfonyl)indolin-2-one] |  | > 50 µM | > 50 µM | > 50 µM | > 50 µM | 50 µM | > 50 µM | > 50 µM | > 50 µM | > 50 µM | > 50 µM | did not show any activity | 
O=C1Nc2ccc(S(=O)(=O)N3CCN(C(=O)c4cccnc4)CC3)cc2C1=C1CCCC1 [9i, 3-Cyclopentylidene-5-((4-nicotinoylpiperazin-1-yl)sulfonyl)indolin-2-one] |  | > 50 µM | > 50 µM | > 50 µM | > 50 µM | > 50 µM | > 50 µM | > 50 µM | > 50 µM | > 50 µM | > 50 µM | no activity | 
O=C1Nc2ccc(S(=O)(=O)N3CCN(C(=O)c4cccnc4)CC3)cc2C1=C1CCCC1 (as salt: hydrochloride) [9i, 3-Cyclopentylidene-5-((4-nicotinoylpiperazin-1-yl)sulfonyl)indolin-2-one] | 195 to 200 °C |  |  |  |  |  |  |  |  |  |  |  | 
O=C1Nc2ccc(S(=O)(=O)N3CCN(C(=O)c4cccc(C(F)(F)F)c4)CC3)cc2C1=C1CCCC1 (as salt: hydrochloride) [9j, 3-Cyclopentylidene-5-((4-(3-(trifluoromethyl)benzoyl)piperazin-1-yl)sulfonyl)indolin-2-one] | 139 to 143 °C |  |  |  |  |  |  |  |  |  |  |  | 
O=C1Nc2ccc(S(=O)(=O)N3CCN(C(=O)c4cccc(F)c4)CC3)cc2C1=C1CCCC1 [9g, 3-Cyclopentylidene-5-((4-(3-fluorobenzoyl)piperazin-1-yl)sulfonyl)indolin-2-one] |  | > 50 µM | > 50 µM | 46.5 ± 5.81 µM | > 50 µM | > 50 µM | 2.09 ± 0.47 µM | > 50 µM | > 50 µM | > 50 µM | > 50 µM | selective cytotoxicity; also recorded: showed activity; also recorded: good anticancer activity in the micromole range | 
CC(C)C(=O)N1CCN(S(=O)(=O)c2ccc3c(c2)C(=C2CCCC2)C(=O)N3)CC1 [9a, 3-Cyclopentylidene-5-((4-isobutyrylpiperazin-1-yl)sulfonyl)indolin-2-one] | 165 to 171 °C | > 50 µM | > 50 µM | > 50 µM | > 50 µM | > 50 µM | > 50 µM | > 50 µM | > 50 µM | > 50 µM | > 50 µM | no activity | 
O=C1Nc2ccc(S(=O)(=O)N3CCN(C(=O)c4cccc(Cl)c4)CC3)cc2C1=C1CCCC1 [9e, 5-((4-(3-Chlorobenzoyl)piperazin-1-yl)sulfonyl)-3-cyclopentylideneindolin-2-one] |  | > 50 µM | > 50 µM | > 50 µM | > 50 µM | > 50 µM | > 50 µM | > 50 µM | > 50 µM | > 50 µM | > 50 µM | did not show any activity | 
O=C1Nc2ccc(S(=O)(=O)N3CCN(C(=O)c4ccccc4)CC3)cc2C1=C1CCCC1 [9d, 5-((4-Benzoylpiperazin-1-yl)sulfonyl)-3-cyclopentylideneindolin-2-one] |  | > 50 µM | > 50 µM | > 50 µM | > 50 µM | > 50 µM | > 50 µM | > 50 µM | > 50 µM | > 50 µM | > 50 µM | did not show any activity | 
O=C1Nc2ccc(S(=O)(=O)N3CCN(C(=O)C4CCCCC4)CC3)cc2C1=C1CCCC1 (as salt: hydrochloride) [9b, 5-((4-(Cyclohexanecarbonyl)piperazin-1-yl)sulfonyl)-3-cyclopentylideneindolin-2-one] | 140 to 145 °C |  |  |  |  |  |  |  |  |  |  |  | 
CCCCC(=O)N1CCN(S(=O)(=O)c2ccc3c(c2)C(=C2CCCC2)C(=O)N3)CC1 (as salt: hydrochloride) [9h, 3-Cyclopentylidene-5-((4-pentanoylpiperazin-1-yl)sulfonyl)indolin-2-one] | 130 to 135 °C |  |  |  |  |  |  |  |  |  |  |  | 
O=C1Nc2ccc(S(=O)(=O)N3CCN(C(=O)c4cccc(C(F)(F)F)c4)CC3)cc2C1=C1CCCC1 [9j, 3-Cyclopentylidene-5-((4-(3-(trifluoromethyl)benzoyl)piperazin-1-yl)sulfonyl)indolin-2-one] |  | > 50 µM | 23.6 ± 6.44 µM | > 50 µM | 27.4 ± 6.8 µM | > 50 µM | > 50 µM | > 50 µM | > 50 µM | > 50 µM | > 50 µM | no activity | 

Further lines, with some results ahead:

melting point | Structure (SMILES) | IC50 [1] | IC50 [2] | IC50 [3] | IC50 [4] | IC50 [5] | IC50 [6] | IC50 [7] | IC50 [8] | IC50 [9] | IC50 [19] | activity in RAMOS cells [6] | further results
132 to 135 °C | O=C1Nc2ccc(S(=O)(=O)N3CCN(C(=O)c4cccc(F)c4)CC3)cc2C1=C1CCCC1 (as salt: hydrochloride) [9g, 3-Cyclopentylidene-5-((4-(3-fluorobenzoyl)piperazin-1-yl)sulfonyl)indolin-2-one] |  |  |  |  |  |  |  |  |  |  |  | 
133 to 138 °C | O=C1Nc2ccc(S(=O)(=O)N3CCN(C(=O)c4cccc(Cl)c4)CC3)cc2C1=C1CCCC1 (as salt: hydrochloride) [9e, 5-((4-(3-Chlorobenzoyl)piperazin-1-yl)sulfonyl)-3-cyclopentylideneindolin-2-one] |  |  |  |  |  |  |  |  |  |  |  | 
130 to 135 °C | O=C1Nc2ccc(S(=O)(=O)N3CCN(C(=O)c4cccc(Br)c4)CC3)cc2C1=C1CCCC1 (as salt: hydrochloride) [9f, 5-((4-(3-Bromobenzoyl)piperazin-1-yl)sulfonyl)-3-cyclopentylideneindolin-2-one] |  |  |  |  |  |  |  |  |  |  |  | 
135 to 140 °C | O=C1Nc2ccc(S(=O)(=O)N3CCN(C(=O)c4ccccc4)CC3)cc2C1=C1CCCC1 (as salt: hydrochloride) [9d, 5-((4-Benzoylpiperazin-1-yl)sulfonyl)-3-cyclopentylideneindolin-2-one] |  |  |  |  |  |  |  |  |  |  |  | 
